Entries after “also recorded” stand apart in the source; their conditions may differ.
Experiments:
[1] = biological target: ghrelin receptor crystallization construct (hGHSR29-346 (T130K/N188Q)); test: [3H]-Compound 21 saturation binding, crystallization construct; set-up: species or system human; conditions: Sf9 membranes, 3.125–50 nM radioligand, on ice 1 h, pH7.5; mean ± s.d.
Method: (§1) The homogenate was ultracentrifuged at 100,000×g for 30 min at 4 °C, and the pellet was washed twice with cold homogenization buffer. The protein concentration was determined using BCA Protein Assay (Thermo Fisher). […] Bound [^3H]-Compound 21 was quantified with an AccuFLEX LCS-8000 liquid scintillation counter (Hitachi) after addition of 2.5 ml of Clear-Sol liquid scintillation cocktail (Nacalai Tesque). Data were analyzed by nonlinear curve-fitting using the program GraphPad Prism 5. Binding data are reported as means ± s.d.

[2] = tested on: ghrelin receptor WT (hGHSR WT); test: Luciferase assay, basal (constitutive) activity in presence of Compound 21; type: cell-based, human; conditions: CHO cells, 10^-10 to 10^-6 M Compound 21, 1 h; n=5–6
Method: Transfections were performed using the FuGENE HD transfection reagent (Promega). The next day, the transfected cells were collected and plated into 96-well white microplates (Corning) at a density of 2.5 × 10^4 cells/well. After a 1-day incubation, the luciferase activities were determined using Dual-Luciferase Reporter Assay System (Promega). […] All firefly luciferase activities were normalized against Renilla luciferase activity. All experiments were performed in sextuplicate.

ghrelin receptor [3] = biological target: T1, ghrelin receptor (Homo sapiens, UniProt Q92847); test: Crystal structure of bRIL-hGHSR-Fab 7881-Compound 21 complex; conditions: 3.3 Å resolution, PDB 6KO5
T1 construct: expressed in transfected cells; host or cells: HEK293 cells (membrane preparations, transient expression)
Method: The complex was purified by gel filtration using Superdex 200 Increase 10/300 GL. […] In the mixture, the protein solution:lipid mass ratio was fixed at 2:3 using the twin-syringe mixing method. Crystallization experiments were carried out in 96-well glass sandwich plates (Molecular Dimensions) on an NT8-LCP crystallization robot (Formulatrix) using a 30 nl protein solution cubic phase overlaid with 600 nl precipitant solution, and incubated at 20 °C. The best crystals were obtained from precipitant solution containing 100 mM MES (pH 6.6–7.0), 400 mM potassium acetate, and 36–40% polyethylene glycol (PEG) 300. The crystals were collected within 2 weeks using mesh grid loops (WAKENBTECH) and flash-cooled in liquid nitrogen. Initial crystals were obtained in hanging drops by vapor diffusion at 20 °C from the precipitant solution containing 100 mM bicine (pH 9.0), 100 mM sodium chloride, and 30% PEG550MME.
All diffraction datasets were collected at SPring-8 BL32XU[42] using a micro-focused X-ray beam. Loop-harvested microcrystals were identified using raster scan and analysis by SHIKA[43]. […] The structure was determined by molecular replacement with the program PHASER[47], using the receptor portions of the antagonist-bound orexin receptor (PDB ID: 4S0V), bRIL (PDB ID: 1M6T), and the Fab 7881 antibody (this study, ID: 6KS2) as the search models. […]

ghrelin receptor WT = biological target: T2, ghrelin receptor WT (Homo sapiens, UniProt Q92847, N188Q); test: [3H]-Compound 21 saturation binding, WT; conditions: HEK293 membranes, on ice 1 h, pH7.5; mean ± s.d., three independent experiments
T2 construct: Full-length human ghrelin receptor was used for the mutagenesis; expressed in transfected cells
Method: as §1

ghrelin receptor R283A = test: Intracellular Ca2+ concentration assay, R283A; type: cell-based, human; conditions: Fig. 4d
Method: (§2) The positions of mutated amino acids and primers are listed in Supplementary Table 2.
(§3) Transfections were performed using the FuGENE HD transfection reagent (Promega). The next day, the transfected cells were collected and plated into 96-well black-wall assay microplates (Corning) at a density of 3 × 10^4 cells/well. After a 1-day incubation, the cells were incubated for 1 h with 100 μl of calcium indicator Fluo-4 from the FLIPR Calcium 5 Assay Kit (Molecular Devices) in Hank’s BSS containing 20 mM HEPES-NaOH (pH7.5) and 2.5 mM probenecid. Fifty-microliter aliquots of samples were tested to induce changes in fluorescence due to increased calcium concentration on a FlexStation3 (Molecular Devices). Maximum [Ca^2+]i changes were determined in quadruplicate (n = 4).

ghrelin receptor E124A = test: Intracellular Ca2+ concentration assay, E124A; type: cell-based, human; conditions: Fig. 4c
Method: as §2, §3

[4] = peripheral injection; ref [3]; cited from earlier work
ghrelin receptor F286A = tested on: T3, ghrelin receptor F286A; test: Intracellular Ca2+ concentration assay, F286A; type: cell-based, human; conditions: Fig. 4f
T3 construct: Full-length human ghrelin receptor was used for the mutagenesis; expressed in transfected cells; host or cells: CHO cells
Method: as §2, §3

ghrelin receptor D99A = test: Intracellular Ca2+ concentration assay, D99A; type: cell-based, human; conditions: Fig. 4a
Method: as §2, §3

ghrelin receptor R102A = test: Intracellular Ca2+ concentration assay, R102A; type: cell-based, human; conditions: Fig. 4b
Method: as §2, §3

ghrelin receptor [5] = conditions: cited from earlier work
Source text: No other peptide hormone is known to require such an acyl-modification for its activity.

bRIL-hGHSR = test: Protein thermostability assay (CPM); type: biochemical, human; conditions: Compound 21 present in both samples
Method: The thermal stability analysis was performed with the thiol-specific fluorochrome N-[4-(7-diethylamino-4-methyl-3-coumarinyl)phenyl]maleimide (CPM)[40]. CPM at 4 mg ml^−1 in DMSO was diluted 40-fold into buffer containing 20 mM HEPES-NaOH (pH 7.5), 100 mM NaCl, 0.01% LMNG, and 0.001% CHS. Purified protein (20 µg) was mixed with diluted CPM and incubated on ice for 15 min in darkness. The reaction mixture (20 µl) was heated in a controlled manner with a ramp rate of 3 °C min^−1 in a MyiQ2 thermal cycler (Bio-Rad). […] Assays were performed over a temperature range starting from 4 °C and ending at 80 °C. The peak in the derivative of the fluorescence signal was used to determine the melting temperature.

T1 sequence (Q92847 whole entry): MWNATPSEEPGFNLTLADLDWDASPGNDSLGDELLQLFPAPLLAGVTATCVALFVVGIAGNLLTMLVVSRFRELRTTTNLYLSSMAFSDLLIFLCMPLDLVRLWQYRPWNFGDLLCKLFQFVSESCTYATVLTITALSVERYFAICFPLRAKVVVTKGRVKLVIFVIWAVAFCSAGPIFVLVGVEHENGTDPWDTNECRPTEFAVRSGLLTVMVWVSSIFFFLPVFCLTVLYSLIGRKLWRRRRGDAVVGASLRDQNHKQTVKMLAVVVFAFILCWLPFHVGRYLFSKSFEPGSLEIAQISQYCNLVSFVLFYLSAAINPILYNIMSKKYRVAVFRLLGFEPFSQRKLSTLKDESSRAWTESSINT
T2 sequence (Q92847 whole entry N188Q): as the sequence (Q92847 whole entry) above, with N188Q counted along it

Cc1nc2ccc(Oc3ccc(Br)cc3F)nc2c(=O)n1CC1CCCN(C(C)C)C1 (centres unmarked) [Compound 21]
Kd [1]: 17.2 ± 7.1 nM | effect on constitutive activity [2]: no effect on the constitutive activity; also recorded: neutral antagonist | interaction seen in crystal structure (ghrelin receptor [3]): forms a hydrogen bond with R283^6.55; also recorded: π–cation interaction with R102^2.63; also recorded: forms hydrophobic interactions with the F279^6.51, F309^7.39, and F312^7.42; also recorded: three hydrophobic contacts with residues I178^4.60, L181^4.63, and M213^5.39 | Kd (ghrelin receptor WT): 4.42 ± 0.76 nM

CCCCCCCC(=O)OC[C@H](NC(=O)[C@H](CO)NC(=O)CN)C(=O)N[C@@H](Cc1ccccc1)C(=O)N[C@@H](CC(C)C)C(=O)N[C@@H](CO)C(=O)N1CCC[C@H]1C(=O)N[C@@H](CCC(=O)O)C(=O)N[C@@H](Cc1c[nH]cn1)C(=O)N[C@@H](CCC(N)=O)C(=O)N[C@@H](CCCNC(=N)N)C(=O)N[C@H](C(=O)N[C@@H](CCC(N)=O)C(=O)N[C@@H](CCC(N)=O)C(=O)N[C@@H](CCCNC(=N)N)C(=O)N[C@@H](CCCCN)C(=O)N[C@@H](CCC(=O)O)C(=O)N[C@@H](CO)C(=O)N[C@@H](CCCCN)C(=O)N[C@@H](CCCCN)C(=O)N1CCC[C@H]1C(=O)N1CCC[C@H]1C(=O)N[C@@H](C)C(=O)N[C@@H](CCCCN)C(=O)N[C@@H](CC(C)C)C(=O)N[C@@H](CCC(N)=O)C(=O)N1CCC[C@H]1C(=O)N[C@@H](CCCNC(=N)N)C(=O)O)C(C)C [Ghrelin]
ghrelin-induced receptor function (ghrelin receptor R283A): completely abolished ghrelin-induced receptor function | ghrelin-induced receptor function (ghrelin receptor E124A): completely abolished ghrelin-induced receptor function | appetite [4]: induces appetite stimulation following peripheral injection | ghrelin-induced receptor activity (ghrelin receptor F286A): only slightly lower than that of the WT ghrelin receptor | receptor activity (ghrelin receptor D99A): abolishes the receptor activity | receptor activity (ghrelin receptor R102A): abolishes the receptor activity

des-acyl ghrelin
activity of ghrelin forms (ghrelin receptor [5]; ref [2],[5]): inactive

n-octanoyl ghrelin
potency of ghrelin forms (ghrelin receptor [5]; reference not given): most potent active form

B1: Fab 7881: Fab fragment antibody specific for the ghrelin receptor, binds ICL3 (antibody, V domains shown)
VH: EVQLQQSGAELVRPGASVKLSCKASGYTFTDYEMHWVKQTPVHGLEWIGAIDPETGGTVYNQKFKGKATLTADISSTTAYMELRSLTSEDSAVYFCISEDIDESKDYWGQGTTLTVSS
VL: DIVMTQSPSSLAVSAGEKVTLSCKSSQSLFNSRTRKNYLAWYQQKPGLSPTLLIYWASTRKSGVPDRFTGSGSGTDFTLTITSVQAEDLAVYYCKQSYYLRTFGGGTKLEIK
increase of Tm (bRIL-hGHSR): about 5 °C | interaction seen in crystal structure (ghrelin receptor [3]): binds to intracellular loop 3 (ICL3)

— PMC7438500 (Nature Communications, 2020)
